Literature values, collected in US20030220416A1, “Curable compositions with antimicrobial properties” (priority 1998, published 2003).
Read-outs that look alike come from different tables or passages of the source.

Legend:
[1] = tested on: bacteria; settings: MDPB incorporated in experimental composites
[2] = tested on: S. mutans; settings: MDPB incorporated in experimental composites
[3] = most of the compositions tested

Row | SMILES | zone of inhibition by the disk diffusion method [1] | attachment of S. mutans to surfaces of the restorative material [2] | water solubility (distilled water at 20° C.) | water solubility (distilled water at 50° C.) | release of the triclosan into the surrounding medium [3]
1 | C=C(C)C(=O)OCCCCCCCCCCCC[n+]1ccccc1.[Br-] [MDPB, methacryloyloxydodecylpyridinium bromide] | no zone of inhibition was evident | reduced |  |  | 
2 | Oc1cc(Cl)ccc1Oc1ccc(Cl)cc1Cl [Triclosan, 2,4,4′-trichloro-2′hydroxydiphenyl ether] |  |  | 20 ppm | 20 ppm | 0.02 micrograms/ml
